From patent publication US20060035867A1, “Methods of treating cancer and the pain associated therewith using endothelin antagonists” (priority 2000, published 2006)

Experiments:
[1] = test system: male subjects with symptomatic hormone refractory prostate cancer with rising PSA levels and pain; assay: Visual Analog Scale (VAS) pain assessment; assay type: in vivo, human; conditions: 2.5 mg or 10 mg ABT-627 vs placebo, independent of the effects of morphine, AUC in FIG. 3
Procedure: Studies were performed on male subjects with asymptomatic hormone refractory prostate cancer with rising PSA levels and on male subjects with symptomatic hormone refractory prostate cancer with rising PSA levels and pain. Subjects in the phase II studies had castrate levels of testosterone, either due to pharmacologic intervention, via leuprolide (Lupron®) or goserelin (Zoladex®), or via surgical castration. Subjects received ABT-627 or placebo. The following tests were conducted: […]
During the course of the study, pain asessments were done daily, at bedtime, by the subject. […] The log also contained a table on which was recorded all daily pain medication consumed by the patient. […] Clinical personnel who received the logs measured the score by measuring the distance (in mm) from the “no pain” end mark to the point where the subject's line crossed the VAS line. […]
The weekly VAS scores were calculated excluding the lowest and highest score for each week and averaging the remaining five scores. […]
Weekly VAS scores are examined using a longitudinal analysis method to explore trends over time. The duration of the response, defined as the time from baseline to the last weekly assessment for which the responder definition was satisfied, was analyzed using the Kaplan-Meier methodology and logrank test.

[2] = test system: male subjects with hormone refractory prostate cancer; assay: Bone scan (Tc-99m phosphonate, bone scan index); assay type: in vivo, human; conditions: 10 mg ABT-627 versus placebo, FIG. 6
Procedure: (§1) Studies were performed on male subjects with asymptomatic hormone refractory prostate cancer with rising PSA levels and on male subjects with symptomatic hormone refractory prostate cancer with rising PSA levels and pain. Subjects in the phase II studies had castrate levels of testosterone, either due to pharmacologic intervention, via leuprolide (Lupron®) or goserelin (Zoladex®), or via surgical castration. Subjects received ABT-627 or placebo. The following tests were conducted:
Bone scans were performed with an NDA approved, Tc-99m phosphonate type radiopharmaceutical. […] Each site was evaluated against a confidence score of 1 to 5, where 1 is negative, 2 is probably negative, 3 is equivocal, 4 is probably positive, and 5 is definitely positive. […] In addition, in a blinded study, a reference nuclear medicine physician interpreted the bone scans quantitatively as follows: the percent of involved bone was estimated for each individual bone, and the individual bone involvement was summed to calculate a global percent bone scan index (BSI). […]
Bone scans were conducted on each subject on day one of the study, and on the final day of the study, and the changes from baseline in bone scan index scores were analysed by mean change and mean percent change, adjusting for baseline characteristics as co-variates using SAS version XXX software.

[3] = test system: bone alkaline phosphatase (BAP); assay: Bone Alkaline Phosphatase levels (Alkphase-B assay); assay type: in vivo, human; conditions: hormone refractory prostate cancer subjects; 10 mg ABT-627 vs placebo; AUC in FIG. 5
Procedure: as §1
(§2) Markers of osteoblastic activity were assessed using urine samples. Bone markers include bone alkaline phosphatase (BAP), deoxypridinoline, and N-telopeptide of Type I collagen. Blood samples were collected prior to dosing on Day 1, Day 42, Day 84, Day 168, and every 28 days after Day 168, with a final collection on the last day of the study.
Bone Alkaline Phosphatase levels were determined using the bone-specific Alkphase-B® assay published by Metra Biosystems (Mountain View, Calif.).

[4] = test system: Crosslinked N-telopeptide (ICTP) of type I collagen; assay: Crosslinked N-Telopeptide Levels (DiaSorin ICTP radioimmunoassay); assay type: in vivo; conditions: hormone refractory prostate cancer subjects; 10 mg ABT-627 vs placebo; human serum; AUC in FIG. 4
Procedure: as §1, §2
Cross-linked N-telopeptide levels were determined using the DiaSorin (Stillwater, Minn.) assay for the quantitative determination of carboxyterminal cross-linked telopeptide of type I collagen (ICTP) in human serum by equilibrium radioimmunoassay (RIA). Briefly, samples were incubated with the ^125I ICTP tracer and ICTP primary antibody for 2 hours at 37° C. Following the 2 hour incubation, a pre-precipitated second antibody complex was added to separate the bound from free tracer. […] The bound tracer in the pellet was counted with a gamma counter. […]

Interleukin-6 = Interleukin-6 Levels (sandwich immunoassay, serum of treated subjects); assay type: in vivo, human; conditions: hormone refractory prostate cancer subjects, 2.5 mg or 10 mg ABT-627 vs placebo, AUC FIG. 1
Procedure: as §1
(§3) A number of recognized or putative biochemical markers of disease progression have been used to monitor treatment of individuals with prostate cancer. Among these markers are serum Prostate Specific Antigen (PSA), serum acid Phosphatase, Interleukin-6, and Chromagranin-A. As currently accepted, favorable treatment is marked by a decrease or slower rate of increase for PSA, acid phosphatase, and Interleukin-6, while a favorable response is marked by an increase in Chromagranin-A. […]
The effect of ABT-627 adminstration on Interleukin-6 levels in human serum samples was determined at Quintiles Laboratories using a sandwich immunoassay. […] After incubation, the wells were washed, and the bound enzymatic activity was measured using a chromogenic substrate. […]

Acid Phosphatase (ACP) = assay: Acid Phosphatase Levels (Sigma Diagnostics ACP Procedure No. 435, serum of treated subjects); assay type: in vivo, human; conditions: hormone refractory prostate cancer subjects, ABT-627 vs placebo, AUC in FIG. 7 (10 mg)
Procedure: as §1
A number of recognized or putative biochemical markers of disease progression have been used to monitor treatment of individuals with prostate cancer. […]
The effect of ABT-627 administeration on Acid Phosphatase levels in human subject serum samples was determined at Quintiles Laboratories using the chemical test described in Sigma Diagnostics Acid Phosphatase (ACP) Procedure No. 435. […] The alpha-naphthol immediately reacts with fast red TR salt to produce a yellow chromophore with an absorbance maximum at 405 nm. The rate of increase in absorbance at 405 nm is directly proportional to ACP activity in the sample. ACP activity was determined in the presence and absence of L-tartrate, the difference being attributed to prostatic acid phosphatase activity. […]

[5] = test system: prostate specific antigen (PSA); assay: Prostate Specific Antigen Level Assay (Chiron ACS: Centaur PSA2, serum of treated subjects); assay type: in vivo, human; conditions: hormone refractory prostate cancer subjects; 2.5 mg or 10 mg ABT-627 vs placebo; AUC in FIG. 2
Procedure: as §1, §3
The effect of ABT-627 administeration on prostate specific antigen (PSA) levels in human subject serum samples was determined using the procedure described in the Chiron Diagnostics ACS: Centaur PSA2 Assay. […]
Briefly, a subject population was treated with a placebo or 2.5 mg or 10 mg of ABT-627. […] A direct relationship exists between the amount of PSA present in the patient sample and the RLU's (relative light units) detected.

Chromagranin-A = Chromagranin-A Levels (two site chemiluminescence assay, serum of treated subjects); assay type: in vivo, human; conditions: hormone refractory prostate cancer subjects, 2.5 mg/day of ABT-627, AUC in FIG. 8
Procedure: as §1, §3
The effect of ABT-627 adminstration on Chromagranin-A levels in human serum samples was determined by proprietary assay conducted at the Nichols Institute. […] The bound, acridinium-labeled material produces light that is detected in a luminometer after addition of triggering agents. […]

CCCCN(CCCC)C(=O)CN1C[C@H](c2ccc3c(c2)OCO3)[C@@H](C(=O)O)[C@@H]1c1ccc(OC)cc1 [ABT-627]
VAS scores (pain) [1]: decrease in pain | proportion of total skeletal involvement (bone scan) [2]: decrease in the proportion of total skeketal involvement | BAP levels [3]: decreased | Crosslinked N-telopeptide levels [4]: decreased | average change in baseline for Interleukin-6 (Interleukin-6): lower | average change from baseline for acid phosphatase (Acid Phosphatase (ACP)): decreased | rate of increase for acid phosphatase (Acid Phosphatase (ACP)): decreased | rate of increase of PSA in the serum samples [5]: decreases | average change from baseline for Chromagranin-A (Chromagranin-A): higher
